Reference: patent publication US8618289B2 (Ambit Biosciences Corporation, priority 2008, dated 2013)

Legend:
RAF kinases [1] = biological target: RAF kinases (Homo sapiens, UniProt P15056, V600E); assay: biochemical
Experimental: (§1) Competition binding assays used herein were developed, validated and performed as described in Fabian et al., Nature Biotechnology 2005, 23, 329-336. […] The liganded beads were blocked with excess biotin and washed with blocking buffer (SeaBlock (Pierce), 1% BSA, 0.05% Tween 20, 1 mM DTT) to remove unbound ligand and to reduce non-specific binding. […] Test compounds were prepared as 100× stocks in DMSO and rapidly diluted into the aqueous environment. DMSO was added to control assays lacking a test compound. Primary screen interactions were performed in polypropylene 384-well plates in a final volume of 34 μt, while Kd determinations were performed in polystyrene 96-well plates in a final volume of 135 pt. […] The kinase concentration in the eluates was measured by quantitative PCR. Each kinase was tested individually against each compound. Kds were determined using eleven serial threefold dilutions. A selectivity score, which is a quantitative measure of selectivity of a compound against a panel of enzymes, may be calculated for a compound by dividing the number of enzymes for which a compound meets a set criteria, (for example, a binding constant of 100 nM or less), by the total number of enzymes tested. […] (Note, for those compounds tested in a larger kinase panel, as indicated by an asterisk (*) next to the S35 score, the divisor is 321 (i.e. the larger panel contains 321 distinct kinases, excluding mutant variants.)).

RAF kinases [2] = biological target: RAF kinases (Homo sapiens, UniProt P15056); assay: biochemical
Experimental: as §1

RAF kinases [3] = biological target: RAF kinases (Homo sapiens, UniProt P04049); assay: biochemical
Experimental: as §1

A375 cells = assay: cells; settings: Homo sapiens, A-375, read-out: A375 Viability EC50
Experimental: The following day, the medium was replaced with 0.5% FBS in M3 for overnight incubation. […] The cells were incubated with compound or control for 72 hours at 37° C. under 10% CO2. Following incubation, Cell Titer Blue reagent (Promega) was added to each well containing compounds or controls, and then incubated for 3 hours at 37° C. under 10% CO2. Proliferation was measured by fluorescence with excitation at 560 nm and emission at 590 nm using SoftMax Pro.

[4] = test system: MEK1 phosphorylation in the A375 human melanoma cell line; assay: cells; settings: A-375, read-out: pMEK IC50

Sequence of RAF kinases (Homo sapiens, UniProt P15056, V600E) (P15056 whole entry V600E): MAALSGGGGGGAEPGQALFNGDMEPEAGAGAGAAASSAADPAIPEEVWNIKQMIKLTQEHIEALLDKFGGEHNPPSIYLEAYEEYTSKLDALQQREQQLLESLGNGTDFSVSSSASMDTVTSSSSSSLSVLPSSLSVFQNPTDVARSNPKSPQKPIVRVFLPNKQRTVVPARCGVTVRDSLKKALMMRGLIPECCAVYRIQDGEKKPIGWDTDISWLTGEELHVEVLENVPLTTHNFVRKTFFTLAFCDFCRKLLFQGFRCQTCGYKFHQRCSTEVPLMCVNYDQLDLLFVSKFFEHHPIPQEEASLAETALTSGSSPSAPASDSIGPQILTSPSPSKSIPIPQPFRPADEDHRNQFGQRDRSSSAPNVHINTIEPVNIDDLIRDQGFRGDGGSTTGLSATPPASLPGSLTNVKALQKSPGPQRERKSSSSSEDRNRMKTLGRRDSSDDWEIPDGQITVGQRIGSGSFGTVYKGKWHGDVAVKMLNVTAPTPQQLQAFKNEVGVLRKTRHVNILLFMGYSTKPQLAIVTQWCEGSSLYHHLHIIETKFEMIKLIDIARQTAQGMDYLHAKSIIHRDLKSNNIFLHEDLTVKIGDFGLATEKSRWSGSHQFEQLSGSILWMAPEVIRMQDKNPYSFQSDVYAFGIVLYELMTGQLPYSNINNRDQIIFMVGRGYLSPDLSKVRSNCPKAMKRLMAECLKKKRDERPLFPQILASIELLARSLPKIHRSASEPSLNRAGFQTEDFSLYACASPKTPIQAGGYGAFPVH
Sequence of RAF kinases (Homo sapiens, UniProt P04049) (P04049 whole entry): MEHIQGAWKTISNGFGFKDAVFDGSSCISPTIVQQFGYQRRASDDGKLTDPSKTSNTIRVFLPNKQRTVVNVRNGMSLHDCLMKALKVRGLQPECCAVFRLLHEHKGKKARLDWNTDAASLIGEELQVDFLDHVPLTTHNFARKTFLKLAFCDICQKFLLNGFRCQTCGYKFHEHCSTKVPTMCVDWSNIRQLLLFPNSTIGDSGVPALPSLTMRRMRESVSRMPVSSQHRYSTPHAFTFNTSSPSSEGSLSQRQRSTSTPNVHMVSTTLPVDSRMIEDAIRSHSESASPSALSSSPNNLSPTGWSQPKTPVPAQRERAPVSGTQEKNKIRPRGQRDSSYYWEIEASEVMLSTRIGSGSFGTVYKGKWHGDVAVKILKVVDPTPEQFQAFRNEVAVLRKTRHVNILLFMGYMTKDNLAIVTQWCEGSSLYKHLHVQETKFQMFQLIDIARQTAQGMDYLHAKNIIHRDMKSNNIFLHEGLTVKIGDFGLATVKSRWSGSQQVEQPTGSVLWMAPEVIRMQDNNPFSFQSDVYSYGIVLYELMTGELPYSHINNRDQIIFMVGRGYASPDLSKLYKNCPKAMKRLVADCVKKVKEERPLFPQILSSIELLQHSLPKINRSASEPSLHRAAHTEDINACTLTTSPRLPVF
Sequence of RAF kinases (Homo sapiens, UniProt P15056) (P15056 whole entry): as the sequence (P15056 whole entry V600E) above, with E600V counted along it

EC50 (A375 cells) | Compound | Kd (RAF kinases [1]) | Kd (RAF kinases [2]) | Kd (RAF kinases [3]) | IC50 [4]
> 1000 nM | CCOc1cc2ncnc(Sc3cccc(NC(=O)Nc4cc(C(C)(C)C)on4)c3)c2cc1OC [Ex 50, 1-(5-tert-butylisoxazol-3-yl)-3-[3-(7-ethoxy-6-methoxyquinazolin-4-ylthio)phenyl]urea] | 250 to 500 nM | 500 to 1000 nM | 250 to 500 nM | 250 to 500 nM
> 1000 nM | COCCOc1ccc2ncnc(Sc3cccc(NC(=O)Nc4cc(C(C)(C)C)on4)c3)c2c1 [Ex 87, 1-(5-tert-butylisoxazol-3-yl)-3-(3-(6-(2-methoxyethoxy)quinazolin-4-ylthio)phenyl)urea] | 250 to 500 nM |  | 500 to 1000 nM | 250 to 500 nM
> 1000 nM | COc1cc(OC2CCOCC2)c2c(Oc3cccc(NC(=O)Nc4cc(C(C)(C)C)on4)c3)ncnc2c1 [Ex 94, 1-(5-tert-butylisoxazol-3-yl)-3-{3-[7-methoxy-5-(tetrahydro-2H-pyran-4-yloxy)quinazolin-4-yloxy]phenyl}urea] | 250 to 500 nM |  | 250 to 500 nM | 250 to 500 nM
> 1000 nM | COc1cc2ncnc(Oc3cccc(NC(=O)Nc4cc(-c5ccccc5)on4)c3)c2cc1OC [Ex 113, 1-(3-(6,7-dimethoxyquinazolin-4-yloxy)phenyl)-3-(5-phenylisoxazol-3-yl)urea] | 250 to 500 nM | 500 to 1000 nM |  | 500 to 1000 nM
> 1000 nM | COc1cc(NC(=O)Nc2cccc(Oc3ncnc4cc(OC)c(OC)cc34)c2)cc(C(F)(F)F)c1 [Ex 116, 1-(3-(6,7-dimethoxyquinazolin-4-yloxy)phenyl)-3-(3-methoxy-5-(trifluoromethyl)phenyl)urea] | 250 to 500 nM | 500 to 1000 nM | 250 to 500 nM | > 1000 nM
> 1000 nM | COc1cc2ncnc(Oc3cccc(NC(=O)Nc4nccc(C(F)(F)F)n4)c3)c2cc1OC [Ex 143, 1-(3-(6,7-dimethoxyquinazolin-4-yloxy)phenyl)-3-(4-(trifluoromethyl)pyrimidin-2-yl)urea] | 250 to 500 nM |  | 250 to 500 nM | > 1000 nM
> 1000 nM | COc1cc2ncnc(Oc3cccc(NC(=O)Nc4cc(C5CCCC5)no4)c3)c2cc1OC [Ex 163, 1-(3-cyclopentylisoxazol-5-yl)-3-(3-(6,7-dimethoxyquinazolin-4-yloxy)phenyl)urea] | 250 to 500 nM |  | 500 to 1000 nM | > 1000 nM
> 1000 nM | COc1cc2ncnc(Sc3cccc(NC(=O)Nc4ccc(C(C)(C)C)cc4)c3)c2cc1OC [Ex 174, 1-(4-tert-butylphenyl)-3-(3-(6,7-dimethoxyquinazolin-4-ylthio)phenyl)urea] | 250 to 500 nM |  | 250 to 500 nM | > 1000 nM
> 1000 nM | COc1cc2ncnc(Sc3cccc(NC(=O)Nc4ccc(C(F)(F)F)c(F)c4)c3)c2cc1OC [Ex 188, 1-(3-(6,7-dimethoxyquinazolin-4-ylthio)phenyl)-3-(3-fluoro-4-(trifluoromethyl)phenyl)urea] | 250 to 500 nM |  | 500 to 1000 nM | > 1000 nM
> 1000 nM | COCCOc1cc(NC(=O)Nc2cccc(Sc3ncnc4cc(OC)c(OC)cc34)c2)cc(C(F)(F)F)c1 [Ex 200, 1-(3-(6,7-dimethoxyquinazolin-4-ylthio)phenyl)-3-(3-(2-methoxyethoxy)-5-(trifluoromethyl)phenyl)urea] | 500 to 1000 nM | 500 to 1000 nM |  | > 1000 nM
> 1000 nM | COCCOc1cc2ncnc(Oc3cccc(NC(=O)Nc4cc(C(=O)N5CCOCC5)cc(C(F)(F)F)c4)c3)c2cc1OC [Ex 205, 1-(3-(6-methoxy-7-(2-methoxyethoxy)quinazolin-4-yloxy)phenyl)-3-(3-(morpholine-4-carbonyl)-5-(trifluoromethyl)phenyl)urea] | 250 to 500 nM |  |  | > 1000 nM
 | COCCOc1cc2ncnc(Oc3cccc(NC(=O)Nc4cc(C(C)(C)C)nn4-c4ccccc4)c3)c2cc1OC [Ex 210, 1-(3-tert-butyl-1-phenyl-1H-pyrazol-5-yl)-3-(3-(6-methoxy-7-(2-methoxyethoxy)quinazolin-4-yloxy)phenyl)urea] | > 1000 nM | > 1000 nM | > 1000 nM | < 250 nM
> 1000 nM | CCOC(C)(C)c1cc(NC(=O)Nc2cccc(Oc3ncnc4cc(OCCOC)c(OC)cc34)c2)n(-c2ccccc2)n1 [Ex 212, 1-[3-(2-ethoxypropan-2-yl)-1-phenyl-1H-pyrazol-5-yl]-3-{3-[6-methoxy-7-(2-methoxyethoxy)quinazolin-4-yloxy]phenyl}urea] | 250 to 500 nM |  |  | 500 to 1000 nM
> 1000 nM | CCOC(C)(C)c1cc(NC(=O)Nc2cccc(Sc3ncnc4cc(OCCOC)c(OC)cc34)c2)n(-c2ccccc2)n1 [Ex 241, 1-[3-(2-ethoxypropan-2-yl)-1-phenyl-1H-pyrazol-5-yl]-3-{3-[6-methoxy-7-(2-methoxyethoxy)quinazolin-4-ylthio]phenyl}urea] | 250 to 500 nM |  |  | 500 to 1000 nM
 | COCCOc1cc2ncnc(Sc3cccc(NC(=O)Nc4cc(C(C)(C)C)nn4-c4ccc(C)cc4)c3)c2cc1OC [Ex 277, 1-(3-tert-butyl-1-p-tolyl-1H-pyrazol-5-yl)-3-(3-(6-methoxy-7-(2-methoxyethoxy)quinazolin-4-ylthio)phenyl)urea] | 250 to 500 nM | > 1000 nM | > 1000 nM | < 250 nM

Compound | EC50 (A375 cells) | Kd (RAF kinases [1]) | Kd (RAF kinases [2]) | Kd (RAF kinases [3]) | IC50 [4]
COc1cc2ncnc(Oc3cccc(NC(=O)Nc4cc(C(C)(C)F)no4)c3)c2cc1OCCCS(C)(=O)=O [Ex 42, 1-(3-(2-fluoropropan-2-yl)isoxazol-5-yl)-3-(3-(7-methoxy-6-(3-(methylsulfonyl)propoxy)quinazolin-4-yloxy)phenyl)urea] | 500 to 1000 nM | < 250 nM | < 250 nM | < 250 nM | 250 to 500 nM
COc1ccc2ncnc(Sc3cccc(NC(=O)Nc4cc(C(C)(C)C)on4)c3)c2c1 [Ex 49, 1-(5-tert-butylisoxazol-3-yl)-3-(3-(6-methoxyquinazolin-4-ylthio)phenyl)urea] | > 1000 nM | 250 to 500 nM |  | 500 to 1000 nM | 500 to 1000 nM
COc1cc2c(Sc3cccc(NC(=O)Nc4cc(C(C)(C)C)on4)c3)ncnc2cc1OCCN1CCC(CO)CC1 [Ex 86, 1-(5-tert-butylisoxazol-3-yl)-3-(3-(7-(2-(4-(hydroxymethyl)piperidin-1-yl)ethoxy)-6-methoxyquinazolin-4-ylthio)phenyl)urea] | > 1000 nM | 250 to 500 nM |  | 500 to 1000 nM | < 250 nM
COc1cc(NC(=O)Nc2cccc(Sc3ncnc4cc(OC)c(OC)cc34)c2)cc(C(F)(F)F)c1 [Ex 115, 1-(3-(6,7-dimethoxyquinazolin-4-ylthio)phenyl)-3-(3-methoxy-5-(trifluoromethyl)phenyl)urea] | > 1000 nM | 250 to 500 nM | 500 to 1000 nM | 250 to 500 nM | > 1000 nM
COc1cc2ncnc(Oc3cccc(NC(=O)Nc4cc(C5CCOCC5)no4)c3)c2cc1OC [Ex 123, 1-(3-(6,7-dimethoxyquinazolin-4-yloxy)phenyl)-3-(3-(tetrahydro-2H-pyran-4-yl)isoxazol-5-yl)urea] | > 1000 nM | 250 to 500 nM |  | 500 to 1000 nM | > 1000 nM
COCCOc1cc(NC(=O)Nc2cccc(Oc3ncnc4cc(OC)c(OC)cc34)c2)cc(C(F)(F)F)c1 [Ex 129, 1-(3-(6,7-dimethoxyquinazolin-4-yloxy)phenyl)-3-(3-(2-methoxyethoxy)-5-(trifluoromethyl)phenyl)urea] | > 1000 nM | 250 to 500 nM |  | 250 to 500 nM | > 1000 nM
COc1cc2ncnc(Oc3cccc(NC(=O)Nc4cc(Cl)cc(C(F)(F)F)c4)c3)c2cc1OC [Ex 140, 1-(3-chloro-5-(trifluoromethyl)phenyl)-3-(3-(6,7-dimethoxyquinazolin-4-yloxy)phenyl)urea] | > 1000 nM | 500 to 1000 nM |  | 500 to 1000 nM | > 1000 nM
COc1cc2ncnc(Oc3cccc(NC(=O)Nc4cc(C(F)(F)F)ccc4Cl)c3)c2cc1OC [Ex 142, 1-(2-chloro-5-(trifluoromethyl)phenyl)-3-(3-(6,7-dimethoxyquinazolin-4-yloxy)phenyl)urea] | > 1000 nM | 250 to 500 nM |  | 250 to 500 nM | > 1000 nM
COCCOc1cc(NC(=O)Nc2cccc(Oc3ncnc4cc(OC)c(OC)cc34)c2)ccc1C(F)(F)F [Ex 147, 1-(3-(6,7-dimethoxyquinazolin-4-yloxy)phenyl)-3-(3-(2-methoxyethoxy)-4-(trifluoromethyl)phenyl)urea] | > 1000 nM | 250 to 500 nM |  | 500 to 1000 nM | > 1000 nM
COc1cc2ncnc(Sc3cccc(NC(=O)Nc4cc(CN5CCOCC5)cc(C(F)(F)F)c4)c3)c2cc1OC [Ex 189, 1-(3-(6,7-dimethoxyquinazolin-4-ylthio)phenyl)-3-(3-(morpholinomethyl)-5-(trifluoromethyl)phenyl)urea] | 500 to 1000 nM | 250 to 500 nM |  | 500 to 1000 nM | 500 to 1000 nM
CCOC(=O)Cn1nc(C(C)(C)C)cc1NC(=O)Nc1cccc(Sc2ncnc3cc(OC)c(OC)cc23)c1 [Ex 195, ethyl 2-(3-tert-butyl-5-{3-[3-(6,7-dimethoxyquinazolin-4-ylthio)phenyl]ureido}-1H-pyrazol-1-yl)acetate] | > 1000 nM | 250 to 500 nM |  |  | 250 to 500 nM
COc1cc2ncnc(Sc3cccc(NC(=O)Nc4cc(C(F)(F)F)nn4-c4ccc(F)cc4)c3)c2cc1OC [Ex 198, 1-[3-(6,7-dimethoxyquinazolin-4-ylthio)phenyl]-3-[1-(4-fluorophenyl)-3-(trifluoromethyl)-1H-pyrazol-5-yl]urea] | 500 to 1000 nM | 500 to 1000 nM |  |  | 250 to 500 nM
